SMILES strings stand for the structures.

A short description of this assay: Protection against Bacillus anthracis lethal toxin-mediated cytotoxicity in mouse RAW264.7 cells assessed as change in viability after 24 hrs by WST1 dye reduction assay. (In general: Tetrazolium dyes change colour on reduction, which living cells bring about.)
The term IC50 denotes the concentration at which inhibition is half-maximal. For `CCCCCCCCCCCCC/C=C/[C@@H](O)[C@H](CO)N(C)C` [(E)-(2S,3R)-2-Dimethylamino-octadec-4-ene-1,3-diol], the IC50 is 2.3 µM.

For `CN(C)CCCn1cc(C2=C(c3c[nH]c4ccccc34)C(=O)NC2=O)c2ccccc21` [2-[1-(3-dimethylaminopropyl)-indol-3-yl]-3-(indol-3-yl)maleimide], the IC50 amounted to 1.5 µM.

In the case of `CC(C)COC[C@H](CN(Cc1ccccc1)c1ccccc1)N1CCCC1`, the IC50 turned out to be 4.8 µM.

For the origin of these results see BindingDB's records for doi:10.1128/AAC.01184-06 (University of California, 2007).
